In this experiment the target is T1, STAT6 protein (Homo sapiens, UniProt P42226).
T1 sequence (P42226 1-847): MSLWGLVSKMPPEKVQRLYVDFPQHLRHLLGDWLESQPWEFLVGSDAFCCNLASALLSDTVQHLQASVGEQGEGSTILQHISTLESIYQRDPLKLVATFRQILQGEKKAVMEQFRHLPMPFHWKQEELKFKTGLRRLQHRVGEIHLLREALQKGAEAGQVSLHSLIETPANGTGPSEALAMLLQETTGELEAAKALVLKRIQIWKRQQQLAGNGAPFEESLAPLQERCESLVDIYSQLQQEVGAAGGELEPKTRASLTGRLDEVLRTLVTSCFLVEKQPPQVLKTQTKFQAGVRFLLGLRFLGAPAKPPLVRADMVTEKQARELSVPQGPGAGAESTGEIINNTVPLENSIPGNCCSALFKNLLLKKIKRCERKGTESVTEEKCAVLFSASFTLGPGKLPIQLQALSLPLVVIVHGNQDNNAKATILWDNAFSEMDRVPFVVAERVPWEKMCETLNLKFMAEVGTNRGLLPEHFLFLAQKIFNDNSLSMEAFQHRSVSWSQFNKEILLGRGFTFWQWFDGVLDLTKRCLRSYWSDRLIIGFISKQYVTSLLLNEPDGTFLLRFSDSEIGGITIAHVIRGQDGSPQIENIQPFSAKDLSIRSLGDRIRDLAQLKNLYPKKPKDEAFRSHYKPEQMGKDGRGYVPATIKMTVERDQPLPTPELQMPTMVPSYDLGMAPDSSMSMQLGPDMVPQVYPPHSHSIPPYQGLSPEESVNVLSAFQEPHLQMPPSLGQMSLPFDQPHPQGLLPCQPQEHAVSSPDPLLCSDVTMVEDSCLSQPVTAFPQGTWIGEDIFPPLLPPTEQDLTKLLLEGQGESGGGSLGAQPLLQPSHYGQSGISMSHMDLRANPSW
In words: Fluorescence polarization (FP) binding assay, STAT6. The note with it: FP competition, 5 nM fluorescein-labeled tracer, 200 nM protein, PBS pH7.4; read-out: Binding STAT6. How it is done: Evaluation of the activity of the inhibitors may be accomplished by fluorescence polarization (FP) experiments. A representative general protocol is the following:
Fluorescence polarization (FP) experiments are performed in black round-bottom plates using the CLARIOstar microplate reader. To each well, fluorescein-labeled tracer and STAT5 or STAT6 protein are added in assay buffer. […] The inhibition constants are determined as the concentration of the STAT5 or STAT6 at which 50% of the ligand is bound.
Fluorescence polarization (FP) experiments were performed in 96-well, black round-bottom plates (Microfluor 2, Fisher Scientific) using the CLARIOstar microplate reader (BMG Labtech). To each well, 5 nM of fluoresceinlabeled tracer and 200 nM of STAT5 and/or STAT6 protein were added to a final volume of 100 μl in the assay buffer (PBS pH7.4+0.01% BGG+0.01% Tween-20, 2 mM DTT). The plate was mixed on a shaker for 15 m and incubated at room temperature for 1 h to reach equilibrium. […] All experimental data were analyzed using Prism 8.0 software (GraphPad Software), and the inhibition constants were determined by nonlinear curve fitting as the concentration of the STAT5 and/or STAT6 at which 50% of the ligand is bound.
(Fluorescence polarisation rises when a labelled molecule tumbles more slowly, as on binding a larger partner.)
Take `CC1(c2ccc(F)cc2)CN(C(=O)[C@@H]2Cc3ccccc3CN2C(=O)[C@@H](NC(=O)c2cc3cc(C(F)(F)P(=O)(O)O)ccc3s2)C(C)(C)C)CCO1` (stereo partly drawn) [Compound 236, (difluoro(2-(((2S)-1-((3S)-3-(2-(4-fluorophenyl)-2-methylmorpholine-4-carbonyl)-3,4-dihydroisoquinolin-2(1H)-yl)-3,3-dimethyl-1-oxobutan-2-yl)carbamoyl)benzo[b]thiophen-5-yl)methyl)phosphonic acid]: the Ki lay in the range of 1000 to 10000 nM.

For the compound `CC(C)(C)[C@H](NC(=O)c1cc2cc(C(F)(F)P(=O)(O)O)ccc2s1)C(=O)N1Cc2ccccc2C[C@H]1C(=O)N1CCOC(c2ccc(F)cc2F)C1` (stereo partly drawn) [Compound 237, ((2-(((2S)-1-((3S)-3-(2-(2,4-difluorophenyl)morpholine-4-carbonyl)-3,4-dihydroisoquinolin-2(1H)-yl)-3,3-dimethyl-1-oxobutan-2-yl)carbamoyl)benzo[b]thiophen-5-yl)difluoromethyl)phosphonic acid], the Ki lay in the range of 100 to 1000 nM.

Regarding `CC(C)(C)[C@H](NC(=O)c1cc2cc(C(F)(F)P(=O)(O)O)ccc2s1)C(=O)N1Cc2ccccc2C[C@H]1C(=O)N1CCOC(c2ccc(F)c(F)c2)C1` (stereo partly drawn) [Compound 238, ((2-(((2S)-1-((3S)-3-(2-(3,4-difluorophenyl)morpholine-4-carbonyl)-3,4-dihydroisoquinolin-2(1H)-yl)-3,3-dimethyl-1-oxobutan-2-yl)carbamoyl)benzo[b]thiophen-5-yl)difluoromethyl)phosphonic acid], the Ki is 100 to 1000 nM.

Take `CC(C)(C)[C@H](NC(=O)c1cc2cc(C(F)(F)P(=O)(O)O)ccc2s1)C(=O)N1Cc2ccccc2C[C@H]1C(=O)N1CCOC(c2ccc(F)c(Cl)c2)C1` (stereo partly drawn) [Compound 239, ((2-(((2S)-1-((3S)-3-(2-(3-chloro-4-fluorophenyl)morpholine-4-carbonyl)-3,4-dihydroisoquinolin-2(1H)-yl)-3,3-dimethyl-1-oxobutan-2-yl)carbamoyl)benzo[b]thiophen-5-yl)difluoromethyl)phosphonic acid]: the Ki lay within 1000 to 10000 nM.

Take `CC(C)(C)[C@H](NC(=O)c1cc2cc(C(F)(F)P(=O)(O)O)ccc2s1)C(=O)N1Cc2ccccc2C[C@H]1C(=O)N1CCOC(c2ccc(Cl)c(Cl)c2)C1` (stereo partly drawn) [Compound 240, ((2-(((2S)-1-((3S)-3-(2-(3,4-dichlorophenyl)morpholine-4-carbonyl)-3,4-dihydroisoquinolin-2(1H)-yl)-3,3-dimethyl-1-oxobutan-2-yl)carbamoyl)benzo[b]thiophen-5-yl)difluoromethyl)phosphonic acid]: the Ki was 100 to 1000 nM.

Take `Cc1cc(C2CN(C(=O)[C@@H]3Cc4ccccc4CN3C(=O)[C@@H](NC(=O)c3cc4cc(C(F)(F)P(=O)(O)O)ccc4s3)C(C)(C)C)CCO2)ccc1F` (stereo partly drawn) [Compound 241, (difluoro(2-(((2S)-1-((3S)-3-(2-(4-fluoro-3-methylphenyl)morpholine-4-carbonyl)-3,4-dihydroisoquinolin-2(1H)-yl)-3,3-dimethyl-1-oxobutan-2-yl)carbamoyl)benzo[b]thiophen-5-yl)methyl)phosphonic acid]: the Ki was 1000 to 10000 nM.

Take `CC(C)(C)[C@H](NC(=O)c1cc2cc(C(F)(F)P(=O)(O)O)ccc2s1)C(=O)N1Cc2ccccc2C[C@H]1C(=O)N1CCOC(c2cc(Cl)cc(Cl)c2)C1` (stereo partly drawn) [Compound 242, ((2-(((2S)-1-((3S)-3-(2-(3,5-dichlorophenyl)morpholine-4-carbonyl)-3,4-dihydroisoquinolin-2(1H)-yl)-3,3-dimethyl-1-oxobutan-2-yl)carbamoyl)benzo[b]thiophen-5-yl)difluoromethyl)phosphonic acid]: the Ki lay in the range of 100 to 1000 nM.

Consider `CC(C)(C)[C@H](NC(=O)c1cc2cc(C(F)(F)P(=O)(O)O)ccc2s1)C(=O)N1Cc2ccccc2C[C@H]1C(=O)N1CCOC(c2cc(F)c(Cl)cc2Cl)C1` (stereo partly drawn) [Compound 243, ((2-(((2S)-1-((3S)-3-(2-(2,4-dichloro-5-fluorophenyl)morpholine-4-carbonyl)-3,4-dihydroisoquinolin-2(1H)-yl)-3,3-dimethyl-1-oxobutan-2-yl)carbamoyl)benzo[b]thiophen-5-yl)difluoromethyl)phosphonic acid], for which the Ki was 100 to 1000 nM.

Consider `CC(C)(C)[C@H](NC(=O)c1cc2cc(C(F)(F)P(=O)(O)O)ccc2s1)C(=O)N1Cc2ccccc2C[C@H]1C(=O)N1CCCCC(c2ccccc2)C1` (stereo partly drawn) [Compound 244, ((2-(((2S)-3,3-dimethyl-1-oxo-1-((3S)-3-(3-phenylazepane-1-carbonyl)-3,4-dihydroisoquinolin-2(1H)-yl)butan-2-yl)carbamoyl)benzo[b]thiophen-5-yl)difluoromethyl)phosphonic acid], for which the Ki lay in the range of 1000 to 10000 nM.

As for `CC(C)(C)[C@H](NC(=O)c1cc2cc(C(F)(F)P(=O)(O)O)ccc2s1)C(=O)N1Cc2ccccc2C[C@H]1C(=O)N1CCCC(c2cccc(F)c2)C1` (stereo partly drawn) [Compound 245, (difluoro(2-(((2S)-1-((3S)-3-(3-(3-fluorophenyl)piperidine-1-carbonyl)-3,4-dihydroisoquinolin-2(1H)-yl)-3,3-dimethyl-1-oxobutan-2-yl)carbamoyl)benzo[b]thiophen-5-yl)methyl)phosphonic acid], the Ki is 100 to 1000 nM.

For `CC(C)(C)[C@H](NC(=O)c1cc2cc(C(F)(F)P(=O)(O)O)ccc2s1)C(=O)N1Cc2ccccc2C[C@H]1C(=O)N1CCCC(c2ccc(Cl)cc2)C1` (stereo partly drawn) [Compound 246, ((2-(((2S)-1-((3S)-3-(3-(4-chlorophenyl)piperidine-1-carbonyl)-3,4-dihydroisoquinolin-2(1H)-yl)-3,3-dimethyl-1-oxobutan-2-yl)carbamoyl)benzo[b]thiophen-5-yl)difluoromethyl)phosphonic acid], the Ki is 100 to 1000 nM.

For the compound `CC(C)(C)[C@H](NC(=O)c1cc2cc(C(F)(F)P(=O)(O)O)ccc2s1)C(=O)N1CCC[C@H]1C(=O)N1CCOC(c2cc(F)cc(F)c2)C1` (stereo partly drawn) [Compound 265, ((2-(((2S)-1-((2S)-2-(2-(3,5-difluorophenyl)morpholine-4-carbonyl)pyrrolidin-1-yl)-3,3-dimethyl-1-oxobutan-2-yl)carbamoyl)benzo[b]thiophen-5-yl)difluoromethyl)phosphonic acid], the Ki was 100 to 1000 nM.

On to `CC(C)(C)[C@H](NC(=O)c1cc2cc(C(F)(F)P(=O)(O)O)ccc2s1)C(=O)N1CCC[C@H]1C(=O)N1CC(C(=O)O)CC(c2ccccc2)C1` (stereo partly drawn) [Compound 266, 1-(((S)-2-(5-(difluoro(phosphono)methyl)benzo [b]thiophene-2-carboxamido)-3,3-dimethylbutanoyl)-L-prolyl)-5-phenylpiperidine-3-carboxylic acid], for which the Ki fell in the range of 1000 to 10000 nM.

For the compound `O=C(N[C@H](C(=O)N1CCC[C@H]1C(=O)N1CCO[C@H](c2ccccc2)C1)C1CCNCC1)c1cc2cc(C(F)(F)P(=O)(O)O)ccc2s1` [Compound 269, (difluoro(2-(((S)-2-oxo-2-((S)-2-((R)-2-phenylmorpholine-4-carbonyl)pyrrolidin-1-yl)-1-(piperidin-4-yl)ethyl)carbamoyl)benzo[b]thiophen-5-yl)methyl)phosphonic acid], the Ki was in the range of 100 to 1000 nM.

In the case of `O=C(N[C@@H](Cc1ccncc1)C(=O)N1CCC[C@H]1C(=O)N1CCO[C@H](c2ccccc2)C1)c1cc2cc(C(F)(F)P(=O)(O)O)ccc2s1` [Compound 270, (difluoro(2-(((S)-1-oxo-1-((S)-2-((R)-2-phenylmorpholine-4-carbonyl)pyrrolidin-1-yl)-3-(pyridin-4-yl)propan-2-yl)carbamoyl)benzo[b]thiophen-5-yl)methyl)phosphonic acid], the Ki is 100 to 1000 nM.

Regarding `O=C(N[C@@H](Cc1cccnc1)C(=O)N1CCC[C@H]1C(=O)N1CCO[C@H](c2ccccc2)C1)c1cc2cc(C(F)(F)P(=O)(O)O)ccc2s1` [Compound 271, (difluoro(2-(((S)-1-oxo-1-((S)-2-((R)-2-phenylmorpholine-4-carbonyl)pyrrolidin-1-yl)-3-(pyridin-3-yl)propan-2-yl)carbamoyl)benzo[b]thiophen-5-yl)methyl)phosphonic acid], the Ki lay in the range of 100 to 1000 nM.

(Values after patent US20230295200A1 (REGENTS OF THE UNIVERSITY OF MICHIGAN, priority 2022, published 2023).)
